Columns and labels:
Assay in all cases: HTRF displacement of biotinylated H4Ac4 peptide
Format in all cases: binding
CaBD2 (CaBdf1 BD2) = target: T1, CaBD2 (CaBdf1 BD2) (Candida albicans, UniProt Q5A4W8)
T1 sequence (Q5A4W8 386-491): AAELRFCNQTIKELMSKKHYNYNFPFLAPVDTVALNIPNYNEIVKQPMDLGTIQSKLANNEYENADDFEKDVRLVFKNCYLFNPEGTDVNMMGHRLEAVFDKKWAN

hBrd4 BD2 = hBrd4 BD2 (Homo sapiens, UniProt O60885)
CaBD1 (CaBdf1 BD1) = target: T2, CaBD1 (CaBdf1 BD1) (Candida albicans, UniProt Q5A4W8)
T2 sequence (Q5A4W8 193-327): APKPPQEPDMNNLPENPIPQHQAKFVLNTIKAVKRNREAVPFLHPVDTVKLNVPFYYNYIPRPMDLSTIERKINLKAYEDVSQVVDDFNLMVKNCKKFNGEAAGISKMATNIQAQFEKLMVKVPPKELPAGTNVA

hBrd4 BD1 = hBrd4 BD1 (Homo sapiens, UniProt O60885)

Row | SMILES | IC50 (CaBD2 (CaBdf1 BD2)) [µM] | IC50 (hBrd4 BD2) [µM] | IC50 (CaBD1 (CaBdf1 BD1)) [µM] | IC50 (hBrd4 BD1) [µM]
1 | Cc1cccn2c(Nc3ccc(Br)cc3)c(-c3ccc(O)cc3)nc12 [1i, 4‐(3‐([4‐Bromophenyl]amino)‐8‐methylimidazo[1,2‐a]pyridin‐2‐yl)phenol] | 4.35 ± 0.63 | 12.8 ± 3.2 | > 20 | > 20
2 | Cc1ccc(Nc2c(-c3ccc(O)cc3)nc3c(C)cccn23)cc1O [1c, 5‐((2‐(4‐Hydroxyphenyl)‐8‐methylimidazo[1,2‐a]pyridin‐3‐yl)amino)‐2‐methylphenol] | 0.78 ± 0.15 | > 20 | > 20 | > 20
3 | Cc1ccc(Nc2c(-c3ccc(O)c(F)c3)nc3c(C)cccn23)cc1 [1a, 2‐Fluoro‐4‐(8‐methyl‐3‐(p‐tolylamino)imidazo[1,2‐a]pyridin‐2‐yl)phenol] | 6.3 ± 2.78 | 8.7 ± 1.8 | > 20 | 14.8 ± 6.9
4 | Cc1cccn2c(Nc3ccc([N+](=O)[O-])cc3)c(-c3ccc(O)cc3)nc12 [1j, 4‐(8‐Methyl‐3‐([4‐nitrophenyl]amino)imidazo[1,2‐a]pyridin‐2‐yl)phenol] | 4.39 ± 1.04 | > 20 | > 20 | > 20
5 | Cc1ccc(Nc2c(-c3ccc(O)cc3)nc3c(Br)cccn23)cc1 [1f, 4‐(8‐Bromo‐3‐(p‐tolylamino)imidazo[1,2‐a]pyridin‐2‐yl)phenol] | 0.75 ± 0.25 | > 20 | > 20 | > 20
6 | Cc1ccc(Nc2c(-c3ccc(O)cc3)nc3c(C)cccn23)c(O)c1 [1d, 2‐((2‐(4‐Hydroxyphenyl)‐8‐methylimidazo[1,2‐a]pyridin‐3‐yl)amino)‐5‐methylphenol] | 9.74 ± 0.19 | > 20 | > 20 | > 20
7 | Cc1ccc(Nc2c(-c3ccc(O)cc3)nc3c(C)cccn23)cc1 [compound 1, imidazopyridine (1)] | 3.9 ± 0.35 | > 20 | > 20 | > 20
8 | Cc1ccc(Nc2c(-c3ccc(O)cc3)nc3c(Cl)cccn23)cc1 [1e, 4‐(8‐Chloro‐3‐(p‐tolylamino)imidazo[1,2‐a]pyridin‐2‐yl)phenol] | 1.5 ± 0.42 | 16 ± 1.2 | > 20 | > 20
9 | Cc1cccn2c(Nc3ccc(N)cc3)c(-c3ccc(O)cc3)nc12 [1h, 4‐(3‐([4‐Aminophenyl]amino)‐8‐methylimidazo[1,2‐a]pyridin‐2‐yl)phenol] | 0.37 ± 0.09 | 2.24 ± 0.65 | > 20 | > 20
10 | Cc1ccc(Nc2c(-c3ccc(O)cc3)nc3c(I)cccn23)cc1 [1g, 4‐(8‐Iodo‐3‐(p‐tolylamino)imidazo[1,2‐a]pyridin‐2‐yl)phenol] | 1.01 ± 0.19 | > 20 | > 20 | > 20
11 | Cc1ccc(Nc2c(-c3ccc(O)cc3F)nc3c(C)cccn23)cc1 [1b, 3‐Fluoro‐4‐(8‐methyl‐3‐(p‐tolylamino)imidazo[1,2‐a]pyridin‐2‐yl)phenol] | 5.22 ± 2.12 | > 20 | > 20 | > 20

From article PMC9669269 (Journal of Computational Chemistry, 2022)
